Some test systems named below: MDA-MB-231; NCI-H23; HOP-92; TK-10; COLO 205; SF-295; HOP-62; OVCAR-4; RXF 393; NCI-H460; SNB-19; UACC-62; SR; UO-31; MCF7; SK-MEL-5; U-251; CAKI-1; LOX IMVI; SK-MEL-2.
Assay in all cases: NCI anticancer screen, dose series, 48 h

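Cultured in 96-well plates, cells were exposed to test compound for 48 hours across five concentrations. GI50: concentration for 50% inhibition of growth.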 The source made the active and inactive calls. Rule as the data show it: active = GI50 up to about 1.1 µM and inactive = higher.

`CC1C2CC(CC2=O)C1(C)C` (stereo unspecified): the GI50 in the assay with MDA-MB-231, with NCI-H23, in the assay on HOP-92, in the assay with TK-10, in the assay on COLO 205 and in the assay with SF-295 was > 100 µM (inactive) throughout. The GI50 with HOP-62, in the assay on OVCAR-4, with RXF 393, with NCI-H460, in the assay on SNB-19 and in the assay on UACC-62 was > 100 µM (inactive) each time. Further, the GI50 with SR, with UO-31, with MCF7, in the assay with SK-MEL-5, in the assay with U-251 and in the assay on CAKI-1 was > 100 µM (inactive) in each case.

For the molecule `Cc1nc(N)sc1/N=N/c1cc(Cl)c([N+](=O)[O-])cc1Cl`, the GI50 in the assay with MDA-MB-231 is 14.8 µM (inactive); with TK-10 it was 21.4 µM (inactive); in the assay with COLO 205 it was 31 µM (inactive); with SF-295, 23.9 µM (inactive); in the assay with HOP-62, 33.7 µM (inactive); in the assay on RXF 393, 34.4 µM (inactive). In addition, the GI50 with NCI-H460 was 30 µM (inactive); in the assay on SNB-19, 29.1 µM (inactive); in the assay with LOX IMVI, 16.9 µM (inactive); in the assay with UACC-62, 16.4 µM (inactive); in the assay on SR, 13.6 µM (inactive); with UO-31, 24.9 µM (inactive). The GI50 with SK-MEL-2 was 22.8 µM (inactive); in the assay with MCF7, 26.9 µM (inactive); with SK-MEL-5, 4.22 µM (inactive); with U-251, 16.3 µM (inactive); in the assay with CAKI-1 it was 27.4 µM (inactive).

With `CCOC(=O)NCC(=O)NCC(=O)NCC(N)=O`, the GI50 in the assay on MDA-MB-231, with NCI-H23, in the assay with TK-10, in the assay with COLO 205, with SF-295 and in the assay on HOP-62 was > 100 µM (inactive) throughout. For the same molecule, the GI50 in the assay with OVCAR-4, with RXF 393, in the assay on SNB-19, with UACC-62, in the assay with SR and with UO-31 was > 100 µM (inactive) each time. The GI50 in the assay with SK-MEL-2, in the assay on MCF7, with SK-MEL-5, in the assay on U-251 and with CAKI-1 was > 100 µM (inactive) each time.

As to `c1ccc(/C(=N/Nc2ccncn2)c2ccccn2)cc1`, the GI50 in the assay with MDA-MB-231 is 32.2 µM (inactive); in the assay with NCI-H23, 17.6 µM (inactive); with COLO 205, 1.03 µM (active); in the assay with SF-295, 23.1 µM (inactive); in the assay with HOP-62 it was 31.7 µM (inactive); with OVCAR-4, 49.1 µM (inactive). Also, the GI50 in the assay on RXF 393 was 34.3 µM (inactive); with NCI-H460, 30.1 µM (inactive); in the assay with SNB-19, 46.8 µM (inactive); in the assay on UACC-62, 26.4 µM (inactive); with SR, 10.5 µM (inactive); with UO-31, 15.5 µM (inactive). Besides, the GI50 was 44.8 µM (inactive) in the assay with SK-MEL-2; 8.51 µM (inactive) in the assay on MCF7; 15.4 µM (inactive) in the assay with SK-MEL-5; 39.6 µM (inactive) in the assay on U-251; 15.5 µM (inactive) with CAKI-1.

For the molecule `COC(=O)n1c(C)c(C=O)c2ccc(OC)cc21`, the GI50 in the assay on MDA-MB-231 is > 100 µM (inactive); with NCI-H23, 28.6 µM (inactive); in the assay with TK-10 it was 22.8 µM (inactive); in the assay with COLO 205, 46.9 µM (inactive); with SF-295, 24.9 µM (inactive); in the assay on HOP-62 it was 16.4 µM (inactive). In addition, the GI50 in the assay with OVCAR-4 is > 100 µM (inactive); in the assay on RXF 393, 30.6 µM (inactive); in the assay on NCI-H460 it was 47.8 µM (inactive); in the assay on SNB-19 it was 42.7 µM (inactive); in the assay with LOX IMVI it was 30.1 µM (inactive); in the assay with UACC-62, 21 µM (inactive). Moreover, the GI50 was 34.5 µM (inactive) in the assay on SR; 34.4 µM (inactive) with UO-31; 33.2 µM (inactive) with SK-MEL-2; 37.2 µM (inactive) in the assay with MCF7; 21.6 µM (inactive) with SK-MEL-5; 38.9 µM (inactive) in the assay on CAKI-1.

`COC1OC(Cn2cc([N+](=O)[O-])nc2C)C(O)C(O)C1O` (stereo unspecified): the GI50 in the assay with MDA-MB-231, in the assay with NCI-H23, in the assay with HOP-92, in the assay with COLO 205, in the assay on SF-295 and with HOP-62 was > 100 µM (inactive) each time. For the same molecule, the GI50 in the assay on OVCAR-4, in the assay with RXF 393, with NCI-H460, in the assay with SNB-19, with UACC-62 and in the assay with SR was > 100 µM (inactive) in each case. Also, the GI50 in the assay on UO-31, with SK-MEL-2, with MCF7, in the assay on SK-MEL-5, with U-251 and in the assay with CAKI-1 was > 100 µM (inactive) throughout.

Take `C=C1C(=O)CCC1C(=O)O` (stereo unspecified): the GI50 with MDA-MB-231, in the assay with NCI-H23, with TK-10, in the assay with COLO 205, in the assay on SF-295 and with HOP-62 was > 100 µM (inactive) each time. The GI50 in the assay on OVCAR-4, with RXF 393, in the assay on NCI-H460, in the assay on SNB-19, with LOX IMVI and in the assay on UACC-62 was > 100 µM (inactive) in each case. The GI50 with SR, in the assay on UO-31, in the assay with SK-MEL-2, with MCF7, in the assay with SK-MEL-5 and with U-251 was > 100 µM (inactive) in each case.

For `COC(=O)/C=C/[C@H]1[C@H](C)N1S(=O)(=O)c1ccc(C)cc1` (stereo partly specified), the GI50 with MDA-MB-231 was > 100 µM (inactive); in the assay on NCI-H23 it was 74.3 µM (inactive); with TK-10, > 100 µM (inactive); in the assay on COLO 205, > 100 µM (inactive); in the assay on SF-295, > 100 µM (inactive); in the assay with HOP-62, > 100 µM (inactive). In addition, the GI50 in the assay with OVCAR-4 was 56.8 µM (inactive); in the assay with RXF 393, > 100 µM (inactive); in the assay on NCI-H460, > 100 µM (inactive); with SNB-19, > 100 µM (inactive); with LOX IMVI, 61.7 µM (inactive); in the assay with UACC-62, > 100 µM (inactive). In addition, the GI50 was 31.6 µM (inactive) in the assay on SR; 68.7 µM (inactive) in the assay with SK-MEL-2; 64.3 µM (inactive) with MCF7; > 100 µM (inactive) with SK-MEL-5; > 100 µM (inactive) in the assay on U-251; > 100 µM (inactive) in the assay on CAKI-1.

Source of the values: ChEMBL document CHEMBL1201862, “PubChem BioAssay data set” (2004).
